From patent publication US20220332700A1, “NOVEL APOPTOSIS SIGNAL-REGULATING KINASE 1 INHIBITORS” (MANKIND PHARMA LTD, priority 2019, published 2022)

Biological target: T1, recombinant ASK1 (Homo sapiens, UniProt Q99683)
T1 construct: purchased Carna Biosciences
Assay: ASK1 Biochemical Assay (HTRF KinEASE-STK S3)
Conditions: ATP 100 μM; read-out: Biochemical Assay IC50
Procedure: ASK1 biochemical assay was standardized using recombinant ASK1 (Carna Biosciences), substrate and detection reagents from Cisbio HRTF KinEASE-STK S3 kit. Enzyme concentration, ATP, biotinylated STK substrate and STK antibodies were titrated for enzyme assay. Assay was carried out in ASK1 kinase buffer, 10 mM MOPS pH-7, 10 mM Mg-acetate, 1 mM DTT, 0.025% NP40, 1.5% glycerol and 0.05% BSA. DMSO was used as vehicle control with a final concentration of 1%. A 5 ng of ASK1 enzyme was incubated with compound for 1 hour at 23° C. on a shaker at 100rpm. ATP and biotin substrate was added at a final concentration of 100 μM and 1 μM and incubated for 3 hours at 23° C. on a shaker at 100rpm. […] Delta F ratios were calculated from data obtained at excitation (337 nm) and emission wavelengths (665 nm and 620-10 nm). Substrate blank values was considered as negative control. Values from negative control was substrated from vehicle control and compound treated wells. Enzyme inhibition by compounds were calculated from vehicle controls, which represent uninterrupted enzyme's activity.

T1 sequence (Q99683 654-971 limits assumed): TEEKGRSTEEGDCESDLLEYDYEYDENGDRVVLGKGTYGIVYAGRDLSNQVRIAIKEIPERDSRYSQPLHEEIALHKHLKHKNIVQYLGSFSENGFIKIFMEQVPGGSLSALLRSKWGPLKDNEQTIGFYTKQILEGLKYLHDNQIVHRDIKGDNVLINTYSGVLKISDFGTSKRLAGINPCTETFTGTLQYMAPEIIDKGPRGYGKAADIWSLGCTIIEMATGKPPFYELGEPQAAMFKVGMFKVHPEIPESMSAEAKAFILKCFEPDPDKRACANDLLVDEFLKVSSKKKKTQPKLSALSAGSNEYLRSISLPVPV

| IC50 | Structure (SMILES) |
| --- | --- |
| < 0.1 µM | COCCCNC(=O)c1ccc(N2CCN(c3cccc(-c4nncn4C(C)C)n3)C2=O)cn1 [Example 1117, 5-(3-(6-(4-isopropyl-4H-1,2,4-triazol-3-yl)pyridin-2-yl)-2-oxoimidazolidin-1-yl)-N-(3-methoxypropyl)pyridine-2-carboxamide] |
| < 0.05 µM | CNC(=O)C1CCN(c2ccc(N3CCN(c4cccc(-c5nncn5C(C)C)n4)C3=O)cn2)C1 (stereo not shown) [Example 1119, 1-(5-(3-(6-(4-isopropyl-4H-1,2,4-triazol-3-yl)pyridin-2-yl)-2-oxoimidazolidin-1-yl)pyridin-2-yl)-N-methylpyrrolidine-3-carboxamide] |
| < 0.1 µM | CC(C)n1cnnc1-c1cccc(N2CCN(c3ccc(N4CCC(S(C)(=O)=O)CC4)nc3)C2=O)n1 [Example 1120, 1-(6-(4-isopropyl-4H-1,2,4-triazol-3-yl)pyridin-2-yl)-3-(6-(4-(methylsulfonyl)piperidin-1-yl)pyridin-3-yl)imidazolidin-2-one] |
| < 0.1 µM | CC(C)n1cnnc1-c1cccc(N2CCN(c3ccc(N4CCC(N(C)C)CC4)nc3)C2=O)n1 [Example 1121, 1-(6-(4-(dimethylamino)piperidin-1-yl)pyridin-3-yl)-3-(6-(4-isopropyl-4H-1,2,4-triazol-3-yl)pyridin-2-yl)imidazolidin-2-one] |
| < 0.1 µM | CNC(=O)C1CN(c2ccc(N3CCN(c4cccc(-c5nncn5C(C)C)n4)C3=O)cn2)C1 [Example 1122, 1-(5-(3-(6-(4-isopropyl-4H-1,2,4-triazol-3-yl)pyridin-2-yl)-2-oxoimidazolidin-1-yl)pyridin-2-yl)-N-methylazetidine-3-carboxamide] |
| < 0.1 µM | CNC(=O)C1CCN(C(C)c2ccc(N3CCN(c4cccc(-c5nncn5C(C)C)n4)C3=O)cc2)CC1 (stereo not shown) [Example 1127, 1-(1-(4-(3-(6-(4-isopropyl-4H-1,2,4-triazol-3-yl)pyridin-2-yl)-2-oxoimidazolidin-1-yl)phenyl)ethyl)-N-methylpiperidine-4-carboxamide] |
| > 1 µM | CC(C)n1cnnc1-c1cccc(N2CCN(c3ccnc(N4CCOCC4)c3)C2=O)n1 [Example 1132, 1-(6-(4-isopropyl-4H-1,2,4-triazol-3-yl)pyridin-2-yl)-3-(2-morpholinopyridin-4-yl)imidazolidin-2-one] |
